Laboratory results published in ChEMBL document CHEMBL6182869, “Tetracationic tetraaryltetranaphtho[2,3]porphyrins for photodynamic inactivation against Staphylococcus aureus biofilm” (Eur J Med Chem, 2025).
Values belong to the compound of their own block, whether it stands above or below them. The source made the active and inactive calls. No cut-off for these calls is given here.

Legend:
Staphylococcus aureus [1] = assay: Antibacterial activity against Staphylococcus aureus assessed as bacterial growth inhibition measured after 24 hrs by broth microdilution method; format: functional
Staphylococcus aureus [2] = assay: Antibacterial activity against Staphylococcus aureus assessed as bacterial growth inhibition preincubated with compound for 15 mins followed by light irradiated with 730 nm, 40 J/cm2 and measured after 24 hrs by broth microdilution method; format: functional; conditions: light or radiation study, 24.25 h, time 1455 min
Escherichia coli [3] = assay: Antibacterial activity against Escherichia coli assessed as bacterial growth inhibition measured after 24 hrs by broth microdilution method; format: functional
[4] = Photophysical property of the compound assessed as fluorescence quantum yield by UV-vis spectrophotometric analysis; format: physicochemical
[5] = Photophysical property of the compound assessed as singlet oxygen quantum yield by UV-vis spectrophotometric analysis; format: physicochemical
Escherichia coli [6] = assay: Antibacterial activity against Escherichia coli assessed as bacterial growth inhibition preincubated with compound for 15 mins followed by light irradiated with 730 nm, 40 J/cm2 and measured after 24 hrs by broth microdilution method; format: functional; conditions: light or radiation study, 24.25 h, time 1455 min
Candida albicans [7] = assay: Antifungal activity against Candida albicans assessed as fungal growth inhibition measured after 24 hrs by broth microdilution method; format: functional
[8] = Induction of singlet oxygen quantum yield under 418 nm light irradiation by DPBF based assay; format: functional
Candida albicans [9] = assay: Antifungal activity against Candida albicans assessed as fungal growth inhibition preincubated with compound for 15 mins followed by light irradiated with 730 nm, 40 J/cm2 and measured after 24 hrs by broth microdilution method; format: functional; conditions: light or radiation study, 24.25 h, time 1455 min
[10] = Dark cytotoxicity against human HaCaT cells assessed as cell viability at 16 uM preincubated for 15 mins by MTT assay; format: toxicity, cell-based; conditions: read-out: Activity
Staphylococcus aureus [11] = assay: Antibiofilm activity against Staphylococcus aureus assessed as disruption of mature biofilm rate at 16 uM preincubated for 15 mins followed by light irradiation with 730 nm, 40 J/cm2 by crystal violet staining based analysis relative to control; format: functional; conditions: 0.25 h
Staphylococcus aureus [12] = assay: Antibiofilm activity against Staphylococcus aureus assessed as reduction in green fluorescence intensity at 16 uM preincubated for 15 mins followed by light irradiation with 730 nm, 40 J/cm2 by SYTO 9/PI staining based CLSM analysis; format: functional, organism-based
Staphylococcus aureus [13] = assay: Antibiofilm activity against Staphylococcus aureus assessed as disruption of mature biofilm structure at 16 uM preincubated for 15 mins followed by light irradiation with 730 nm, 40 J/cm2 by crystal violet staining based analysis; format: functional, organism-based
Staphylococcus aureus [14] = assay: Antibiofilm activity against Staphylococcus aureus assessed as increase in red fluorescence intensity at 16 uM preincubated for 15 mins followed by light irradiation with 730 nm, 40 J/cm2 by SYTO 9/PI staining based CLSM analysis; format: functional, organism-based
Staphylococcus aureus [15] = assay: Antibacterial activity against Staphylococcus aureus assessed as log reduction in bacterial viability at 8 uM preincubated with compound for 15 mins followed by light irradiation with 730 nm, 40 J/cm2 by cell counting analysis relative to control; format: functional; conditions: 0.25 h
Staphylococcus aureus [16] = assay: Antibacterial activity against Staphylococcus aureus assessed as eradication rate at 8 uM preincubated with compound for 15 mins followed by light irradiation with 730 nm, 40 J/cm2 relative to control; format: functional; conditions: 0.25 h
Staphylococcus aureus [17] = assay: Antibacterial activity against Staphylococcus aureus preincubated with compound for 15 mins followed by light irradiation with 730 nm, 40 J/cm2 by cell counting analysis; format: functional, organism-based; conditions: dose 0.5-8 µM
Staphylococcus aureus [18] = assay: Antibacterial activity against Staphylococcus aureus assessed as reduction in viable bacteria at 0.5 uM preincubated with compound for 15 mins followed by light irradiation with 730 nm, 40 J/cm2 by cell counting analysis relative to control; format: functional; conditions: 0.25 h
HaCaT [19] = assay: Phototoxicity in human HaCaT cells assessed as cell viability at 16 uM preincubated for 15 mins followed by light irradiation with 730 nm, 40 J/cm2 by MTT assay; format: functional, cell-based
HaCaT [20] = assay: Phototoxicity in human HaCaT cells assessed as cell viability at 16 uM preincubated for 15 mins by MTT assay; format: functional, cell-based
Staphylococcus aureus [21] = assay: Bactericidal activity against Staphylococcus aureus at 0.5 to 8 uM; format: functional, organism-based; conditions: dose 0.5-8 µM

Compound: [Br-].[Br-].[Br-].[Br-].c1cc[n+](CCCCCCOc2ccc(-c3c4nc(c(-c5ccc(OCCCCCC[n+]6ccccc6)cc5)c5[nH]c(c(-c6ccc(OCCCCCC[n+]7ccccc7)cc6)c6nc(c(-c7ccc(OCCCCCC[n+]8ccccc8)cc7)c7[nH]c3c3cc8ccccc8cc73)-c3cc7ccccc7cc3-6)c3cc6ccccc6cc53)-c3cc5ccccc5cc3-4)cc2)cc1
- MIC (Staphylococcus aureus [1]): 64 µM
- MIC (Staphylococcus aureus [2]): 64 µM
- MIC (Escherichia coli [3]): > 64 µM
- Activity [4]: 0.07
- Activity [5]: 0.52
- MIC (Escherichia coli [6]): > 64 µM
- MIC (Candida albicans [7]): 64 µM
- Activity [8]: Active
- MIC (Candida albicans [9]): 64 µM

Compound: [Br-].[Br-].[Br-].[Br-].c1cc[n+](CCCCCOc2ccc(-c3c4nc(c(-c5ccc(OCCCCC[n+]6ccccc6)cc5)c5[nH]c(c(-c6ccc(OCCCCC[n+]7ccccc7)cc6)c6nc(c(-c7ccc(OCCCCC[n+]8ccccc8)cc7)c7[nH]c3c3cc8ccccc8cc73)-c3cc7ccccc7cc3-6)c3cc6ccccc6cc53)-c3cc5ccccc5cc3-4)cc2)cc1
- MIC (Staphylococcus aureus [1]): 64 µM
- MIC (Staphylococcus aureus [2]): 32 µM
- MIC (Escherichia coli [3]): > 64 µM
- Activity [4]: 0.08
- Activity [5]: 0.5
- MIC (Escherichia coli [6]): > 64 µM
- MIC (Candida albicans [7]): 64 µM
- Activity [8]: Active
- MIC (Candida albicans [9]): 32 µM

Compound: C[N+](C)(C)CCCCCCOc1ccc(-c2c3nc(c(-c4ccc(OCCCCCC[N+](C)(C)C)cc4)c4[nH]c(c(-c5ccc(OCCCCCC[N+](C)(C)C)cc5)c5nc(c(-c6ccc(OCCCCCC[N+](C)(C)C)cc6)c6[nH]c2c2cc7ccccc7cc62)-c2cc6ccccc6cc2-5)c2cc5ccccc5cc42)-c2cc4ccccc4cc2-3)cc1.[Br-].[Br-].[Br-].[Br-]
- MIC (Staphylococcus aureus [1]): 64 µM
- MIC (Staphylococcus aureus [2]): 16 µM
- MIC (Escherichia coli [3]): > 64 µM
- Activity [4]: 0.07
- Activity [5]: 0.48
- MIC (Escherichia coli [6]): > 64 µM
- MIC (Candida albicans [7]): 64 µM
- Activity [8]: Active
- MIC (Candida albicans [9]): 64 µM

Compound: CC[N+](C)(CC)CCCCOc1ccc(-c2c3nc(c(-c4ccc(OCCCC[N+](C)(CC)CC)cc4)c4[nH]c(c(-c5ccc(OCCCC[N+](C)(CC)CC)cc5)c5nc(c(-c6ccc(OCCCC[N+](C)(CC)CC)cc6)c6[nH]c2c2cc7ccccc7cc62)-c2cc6ccccc6cc2-5)c2cc5ccccc5cc42)-c2cc4ccccc4cc2-3)cc1.[Br-].[Br-].[Br-].[Br-]
- MIC (Staphylococcus aureus [1]): 16 µM
- MIC (Staphylococcus aureus [2]): 8 µM
- MIC (Escherichia coli [3]): > 64 µM
- Activity [4]: 0.07
- Activity [5]: 0.56
- MIC (Escherichia coli [6]): > 64 µM
- MIC (Candida albicans [7]): 64 µM
- Activity [8]: Active
- MIC (Candida albicans [9]): 64 µM

Compound: C[N+](C)(C)CCCCOc1ccc(-c2c3nc(c(-c4ccc(OCCCC[N+](C)(C)C)cc4)c4[nH]c(c(-c5ccc(OCCCC[N+](C)(C)C)cc5)c5nc(c(-c6ccc(OCCCC[N+](C)(C)C)cc6)c6[nH]c2c2cc7ccccc7cc62)-c2cc6ccccc6cc2-5)c2cc5ccccc5cc42)-c2cc4ccccc4cc2-3)cc1.[Br-].[Br-].[Br-].[Br-]
- MIC (Staphylococcus aureus [1]): 32 µM
- MIC (Staphylococcus aureus [2]): 16 µM
- MIC (Escherichia coli [3]): > 64 µM
- Activity [4]: 0.08
- Activity [5]: 0.41
- MIC (Escherichia coli [6]): > 64 µM
- MIC (Candida albicans [7]): 64 µM
- Activity [8]: Active
- MIC (Candida albicans [9]): 64 µM

- MIC (Staphylococcus aureus [1]): 64 µM
- MIC (Staphylococcus aureus [2]): 16 µM
- MIC (Escherichia coli [3]): > 64 µM
- Activity [4]: 0.07
- Activity [5]: 0.47
- MIC (Escherichia coli [6]): > 64 µM
- MIC (Candida albicans [7]): 64 µM
- MIC (Candida albicans [9]): 64 µM
Compound: C[N+](C)(C)CCCCCOc1ccc(-c2c3nc(c(-c4ccc(OCCCCC[N+](C)(C)C)cc4)c4[nH]c(c(-c5ccc(OCCCCC[N+](C)(C)C)cc5)c5nc(c(-c6ccc(OCCCCC[N+](C)(C)C)cc6)c6[nH]c2c2cc7ccccc7cc62)-c2cc6ccccc6cc2-5)c2cc5ccccc5cc42)-c2cc4ccccc4cc2-3)cc1.[Br-].[Br-].[Br-].[Br-]
- Activity [8]: Active

Compound: CC[N+](C)(CC)CCCCCCOc1ccc(-c2c3nc(c(-c4ccc(OCCCCCC[N+](C)(CC)CC)cc4)c4[nH]c(c(-c5ccc(OCCCCCC[N+](C)(CC)CC)cc5)c5nc(c(-c6ccc(OCCCCCC[N+](C)(CC)CC)cc6)c6[nH]c2c2cc7ccccc7cc62)-c2cc6ccccc6cc2-5)c2cc5ccccc5cc42)-c2cc4ccccc4cc2-3)cc1.[Br-].[Br-].[Br-].[Br-]
- MIC (Staphylococcus aureus [1]): 64 µM
- MIC (Staphylococcus aureus [2]): 64 µM
- MIC (Escherichia coli [3]): > 64 µM
- Activity [4]: 0.07
- Activity [5]: 0.68
- MIC (Escherichia coli [6]): > 64 µM
- MIC (Candida albicans [7]): 64 µM
- Activity [8]: Active
- MIC (Candida albicans [9]): 64 µM

Compound: [Br-].[Br-].[Br-].[Br-].c1cc[n+](CCCCOc2ccc(-c3c4nc(c(-c5ccc(OCCCC[n+]6ccccc6)cc5)c5[nH]c(c(-c6ccc(OCCCC[n+]7ccccc7)cc6)c6nc(c(-c7ccc(OCCCC[n+]8ccccc8)cc7)c7[nH]c3c3cc8ccccc8cc73)-c3cc7ccccc7cc3-6)c3cc6ccccc6cc53)-c3cc5ccccc5cc3-4)cc2)cc1
- MIC (Staphylococcus aureus [1]): 64 µM
- MIC (Staphylococcus aureus [2]): 32 µM
- MIC (Escherichia coli [3]): > 64 µM
- Activity [4]: 0.08
- Activity [5]: 0.45
- MIC (Escherichia coli [6]): > 64 µM
- MIC (Candida albicans [7]): 64 µM
- Activity [8]: Active
- MIC (Candida albicans [9]): 32 µM

Compound: CC[N+](C)(CC)CCCCCOc1ccc(-c2c3nc(c(-c4ccc(OCCCCC[N+](C)(CC)CC)cc4)c4[nH]c(c(-c5ccc(OCCCCC[N+](C)(CC)CC)cc5)c5nc(c(-c6ccc(OCCCCC[N+](C)(CC)CC)cc6)c6[nH]c2c2cc7ccccc7cc62)-c2cc6ccccc6cc2-5)c2cc5ccccc5cc42)-c2cc4ccccc4cc2-3)cc1.[Br-].[Br-].[Br-].[Br-]
- MIC (Staphylococcus aureus [1]): 32 µM
- MIC (Staphylococcus aureus [2]): 16 µM
- MIC (Escherichia coli [3]): > 64 µM
- Activity [4]: 0.07
- Activity [5]: 0.67
- MIC (Escherichia coli [6]): > 64 µM
- MIC (Candida albicans [7]): 64 µM
- Activity [8]: Active
- MIC (Candida albicans [9]): 64 µM

Compound: C[N+](C)(C)CCCOc1ccc(-c2c3nc(c(-c4ccc(OCCC[N+](C)(C)C)cc4)c4[nH]c(c(-c5ccc(OCCC[N+](C)(C)C)cc5)c5nc(c(-c6ccc(OCCC[N+](C)(C)C)cc6)c6[nH]c2c2cc7ccccc7cc62)-c2cc6ccccc6cc2-5)c2cc5ccccc5cc42)-c2cc4ccccc4cc2-3)cc1.[Br-].[Br-].[Br-].[Br-]
- MIC (Staphylococcus aureus [1]): 32 µM
- viability at 0.25 h, 16 µM [10]: > 80%
- MIC (Staphylococcus aureus [2]): 8 µM
- Activity (Staphylococcus aureus [11]): 72.6%
- Activity (Staphylococcus aureus [12]): Active
- Activity (Staphylococcus aureus [13]): Active
- Activity (Staphylococcus aureus [14]): Active
- log(activity) (Staphylococcus aureus [15]): 3
- Activity (Staphylococcus aureus [16]): >99.9%
- MIC (Escherichia coli [3]): > 64 µM
- Activity [4]: 0.07
- Activity [5]: 0.37
- Activity (Staphylococcus aureus [17]): Dose-dependent-effect
- Activity (Staphylococcus aureus [18]): >75%
- Activity (HaCaT [19]): inactive
- MIC (Escherichia coli [6]): > 64 µM
- MIC (Candida albicans [7]): 64 µM
- Activity [8]: Active
- Activity (HaCaT [20]): inactive
- Activity (Staphylococcus aureus [21]): Active
- MIC (Candida albicans [9]): 64 µM

Compound: [Br-].[Br-].[Br-].[Br-].c1cc[n+](CCCOc2ccc(-c3c4nc(c(-c5ccc(OCCC[n+]6ccccc6)cc5)c5[nH]c(c(-c6ccc(OCCC[n+]7ccccc7)cc6)c6nc(c(-c7ccc(OCCC[n+]8ccccc8)cc7)c7[nH]c3c3cc8ccccc8cc73)-c3cc7ccccc7cc3-6)c3cc6ccccc6cc53)-c3cc5ccccc5cc3-4)cc2)cc1
- MIC (Staphylococcus aureus [1]): 32 µM
- viability at 0.25 h, 16 µM [10]: > 80%
- MIC (Staphylococcus aureus [2]): 8 µM
- Activity (Staphylococcus aureus [11]): 77.5%
- Activity (Staphylococcus aureus [12]): Active
- Activity (Staphylococcus aureus [13]): Active
- Activity (Staphylococcus aureus [14]): Active
- log(activity) (Staphylococcus aureus [15]): 3
- Activity (Staphylococcus aureus [16]): >99.9%
- MIC (Escherichia coli [3]): > 64 µM
- Activity [4]: 0.07
- Activity [5]: 0.45
- Activity (Staphylococcus aureus [17]): Dose-dependent-effect
- Activity (Staphylococcus aureus [18]): >75%
- Activity (HaCaT [19]): inactive
- MIC (Escherichia coli [6]): > 64 µM
- MIC (Candida albicans [7]): 64 µM
- Activity [8]: Active
- Activity (HaCaT [20]): inactive
- Activity (Staphylococcus aureus [21]): Active
- MIC (Candida albicans [9]): 32 µM
